According to PubChem BioAssay AID330 (DTP/NCI, 2004):
Where “and” joins values, the source holds several entries; their conditions need not be identical. Identical values can stand only once. Inconclusive results and toxic doses are left out. How the source made its calls: active means survival T/C of 150% or more; inactive means T/C below 125% in these data. Peptide text beside a SMILES is read from it.

Tested on: P388 leukemia ip, CD2F1 mice, survival T/C
Assay: NCI In Vivo Anticancer Drug Screen. Data for tumor model P388 Leukemia (intraperitoneal) in CD2F1 (CDF1) mice
Details: endpoint: median survival time, higher = longer survival
Summary of the method: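 Mice carrying the transplanted tumor received test compound or vehicle. Survival was recorded in each group, and the value is the treated-group measurement divided by that of the vehicle-treated control group.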

[1] = dose: 50.0 mg/kg/injection, schedule: Q01DX005 (ip), vehicle: saline with Tween-80
[2] = dose: 100.0 mg/kg/injection, schedule: Q01DX005 (ip), vehicle: saline with Tween-80
[3] = dose: 200.0 mg/kg/injection, schedule: Q01DX005 (ip), vehicle: saline with Tween-80
[4] = dose: 50.0 mg/kg/injection, schedule: Q01DX009 (ip), vehicle: saline with Tween-80
[5] = dose: 100.0 mg/kg/injection, schedule: Q01DX009 (ip), vehicle: saline with Tween-80
[6] = dose: 200.0 mg/kg/injection, schedule: Q01DX009 (ip), vehicle: saline with Tween-80
[7] = dose: 25.0 mg/kg/injection, schedule: Q01DX009 (ip), vehicle: saline with Tween-80
[8] = dose: 50.0 mg/kg/injection, schedule: Q01DX009 (ip), vehicle: Klucel (hydroxypropylcellulose) (HPC)
[9] = dose: 100.0 mg/kg/injection, schedule: Q01DX009 (ip), vehicle: Klucel (hydroxypropylcellulose) (HPC)
[10] = dose: 200.0 mg/kg/injection, schedule: Q01DX009 (ip), vehicle: Klucel (hydroxypropylcellulose) (HPC)
[11] = dose: 25.0 mg/kg/injection, schedule: Q01DX009 (ip), vehicle: Klucel (hydroxypropylcellulose) (HPC)
[12] = dose: 12.5 mg/kg/injection, schedule: Q01DX009 (ip), vehicle: other
[13] = dose: 25.0 mg/kg/injection, schedule: Q01DX009 (ip), vehicle: other
[14] = dose: 50.0 mg/kg/injection, schedule: Q01DX009 (ip), vehicle: other
[15] = dose: 50.0 mg/kg/injection, schedule: Q04DX003 (ip), vehicle: saline with Tween-80
[16] = dose: 100.0 mg/kg/injection, schedule: Q01DX009 (ip), vehicle: other
[17] = dose: 100.0 mg/kg/injection, schedule: Q04DX003 (ip), vehicle: saline with Tween-80
[18] = dose: 12.5 mg/kg/injection, schedule: Q01DX005 (ip), vehicle: saline
[19] = dose: 25.0 mg/kg/injection, schedule: Q01DX005 (ip), vehicle: saline

Measured: T/C

c1ccc(C(c2ccccc2)[P+](c2ccccc2)(c2ccccc2)c2ccccc2)cc1
inactive: dose: 0.15 mg/kg/injection, schedule: Q01DX009 (ip), vehicle: Klucel (hydroxypropylcellulose) (HPC) 101 % of control | dose: 0.31 mg/kg/injection, schedule: Q01DX009 (ip), vehicle: Klucel (hydroxypropylcellulose) (HPC) 109 % of control and 114 % of control | dose: 0.63 mg/kg/injection, schedule: Q01DX009 (ip), vehicle: Klucel (hydroxypropylcellulose) (HPC) 111 % of control | dose: 1.25 mg/kg/injection, schedule: Q01DX009 (ip), vehicle: Klucel (hydroxypropylcellulose) (HPC) 118 % of control and 123 % of control and 86 % of control

O=C1c2ccccc2CN(c2ccccc2)C(=Nc2ccccc2)N1c1ccccc1
inactive: [1] 95 % of control | [2] 93 % of control | [3] 95 % of control

O/N=C1/C(=N/O)N(c2ccccc2)CCN1c1ccccc1
inactive: [1] 99 % of control | [2] 100 % of control | [3] 92 % of control

CC1CC(=O)Nc2ncccc2N1 (stereo unspecified)
inactive: [4] 94 % of control | [5] 94 % of control | [6] 94 % of control

CSC(C=P(c1ccccc1)(c1ccccc1)c1ccccc1)=Nc1ccccc1
inactive: dose: 6.25 mg/kg/injection, schedule: Q01DX009 (ip), vehicle: saline with Tween-80 101 % of control | dose: 12.5 mg/kg/injection, schedule: Q01DX009 (ip), vehicle: saline with Tween-80 101 % of control | [7] 102 % of control and 103 % of control

O=C1/C(=C/c2ccccc2[N+](=O)[O-])CCCc2ccccc21
inactive: [8] 94 % of control | [9] 103 % of control | [10] 105 % of control

CC1(C)OCC2OC(n3cnc4c(N)ncnc43)C(O)C2O1 (stereo unspecified)
inactive: [11] 111 % of control | [8] 111 % of control | [9] 111 % of control | [10] 97 % of control

c1ccc2c(c1)nc1n2CC2(CS1)CSc1nc3ccccc3n1C2
inactive: [4] 88 % of control | [5] 91 % of control

Nc1nc(N)c2[nH]cnc2n1
inactive: dose: 6.25 mg/kg/injection, schedule: Q01DX009 (ip), vehicle: other 111 % of control | [12] 100 % of control | [13] 104 % of control | [14] 95 % of control | [4] 90 % of control | [15] 108 % of control | [16] 106 % of control | [5] 90 % of control | [17] 108 % of control | [6] 100 % of control | dose: 200.0 mg/kg/injection, schedule: Q04DX003 (ip), vehicle: saline with Tween-80 108 % of control | dose: 400.0 mg/kg/injection, schedule: Q01DX009 (ip), vehicle: saline with Tween-80 90 % of control | dose: 400.0 mg/kg/injection, schedule: Q04DX003 (ip), vehicle: saline with Tween-80 91 % of control

CCCCCC(CN(C)C)C(O)/C=C/c1ccc(Cl)cc1Cl (stereo unspecified)
inactive: dose: 12.5 mg/kg/injection, schedule: Q01DX009 (ip), vehicle: saline 108 % of control | dose: 25.0 mg/kg/injection, schedule: Q01DX009 (ip), vehicle: saline 100 % of control | dose: 50.0 mg/kg/injection, schedule: Q01DX009 (ip), vehicle: saline 99 % of control

O=C(CCl)NC(=O)CCl
inactive: [7] 90 % of control

COC(=O)Nc1cn2ccc(C(Cl)=C(Cl)Cl)cc2n1
inactive: [8] 107 % of control and 109 % of control | [9] 117 % of control and 122 % of control | [10] 116 % of control

NNC(=O)CNc1cc(Cl)cc(Cl)c1
inactive: dose: 60.0 mg/kg/injection, schedule: Q01DX005 (ip), vehicle: saline with Tween-80 113 % of control | dose: 120.0 mg/kg/injection, schedule: Q01DX005 (ip), vehicle: saline with Tween-80 97 % of control | dose: 240.0 mg/kg/injection, schedule: Q01DX005 (ip), vehicle: saline with Tween-80 100 % of control

O=C(/C=N/O)Nc1cccnc1
inactive: [8] 109 % of control | [9] 109 % of control | [10] 109 % of control

CCOc1ccc(Nc2ccc(/C(=C3\C=CC(=[N+](CC)Cc4cccc(S(=O)(=O)O)c4)C=C3C)c3ccc(N(CC)Cc4cccc(S(=O)(=O)O)c4)cc3C)cc2)cc1
inactive: [4] 98 % of control | [5] 97 % of control

COc1ccc2ccc3c4c(c(=O)[nH]c3c2n1)CCC4
inactive: dose: 100.0 mg/kg/injection, schedule: Q04DX003 (ip), vehicle: saline 101 % of control | dose: 200.0 mg/kg/injection, schedule: Q04DX003 (ip), vehicle: saline 92 % of control | dose: 400.0 mg/kg/injection, schedule: Q04DX003 (ip), vehicle: saline 105 % of control

CC12CC3(C)CC(C)(C1)CC(C(Cl)C(=O)O)(C2)C3 (stereo unspecified)
inactive: dose: 25.0 mg/kg/injection, schedule: Q01DX009 (ip), vehicle: suspension in saline 98 % of control | dose: 50.0 mg/kg/injection, schedule: Q01DX009 (ip), vehicle: suspension in saline 100 % of control

NC(N)=NCCCC(N)C(=O)N1CCCC1C(=O)N1CCCC1C(=O)NC(CCCN=C(N)N)C(=O)O (stereo unspecified) (H-RPPR-OH; configuration not given here)
inactive: [18] 100 % of control | [19] 105 % of control | dose: 50.0 mg/kg/injection, schedule: Q01DX005 (ip), vehicle: saline 101 % of control

Cc1nc(N)nc2ccccc12
inactive: dose: 15.0 mg/kg/injection, schedule: Q01DX005 (ip), vehicle: Klucel (hydroxypropylcellulose) (HPC) 100 % of control | dose: 30.0 mg/kg/injection, schedule: Q01DX005 (ip), vehicle: Klucel (hydroxypropylcellulose) (HPC) 100 % of control | dose: 60.0 mg/kg/injection, schedule: Q01DX005 (ip), vehicle: Klucel (hydroxypropylcellulose) (HPC) 99 % of control

NC(N)=O.NC(N)=O.NC(N)=O.NC(N)=O.NC(N)=O.NC(N)=O.[O-][Cl+3]([O-])([O-])O.[V]
inactive: dose: 25.0 mg/kg/injection, schedule: Q04DX003 (ip), vehicle: saline with Tween-80 94 % of control | [15] 97 % of control | [17] 109 % of control

Cc1cc(=O)n2[nH]cnc2n1
inactive: dose: 12.5 mg/kg/injection, schedule: Q01DX009 (ip), vehicle: Klucel (hydroxypropylcellulose) (HPC) 97 % of control | [11] 109 % of control and 110 % of control and 98 % of control | [10] 99 % of control and 107 % of control and 109 % of control | dose: 400.0 mg/kg/injection, schedule: Q01DX009 (ip), vehicle: Klucel (hydroxypropylcellulose) (HPC) 104 % of control and 119 % of control

Cc1ccc(C)n1-n1nnnc1N
inactive: [1] 101 % of control | [2] 100 % of control

CC1(C)N=NC2(Br)C3CCC(C3)C12 (stereo unspecified)
inactive: dose: 100.0 mg/kg/injection, schedule: Q04DX002 (ip), vehicle: Klucel (hydroxypropylcellulose) (HPC) 102 % of control | dose: 200.0 mg/kg/injection, schedule: Q04DX002 (ip), vehicle: Klucel (hydroxypropylcellulose) (HPC) 97 % of control | dose: 400.0 mg/kg/injection, schedule: Q04DX002 (ip), vehicle: Klucel (hydroxypropylcellulose) (HPC) 100 % of control

NC1=NC(O)C=C1 (stereo unspecified)
inactive: [18] 105 % of control | [19] 107 % of control

CNc1nc(C)nc(NC)n1
inactive: [8] 91 % of control | [9] 93 % of control | [10] 90 % of control

O=C(NC(CCS(=O)(=O)n1ccnc1)C(=O)OCc1ccccc1)OCc1ccccc1 (stereo unspecified)
inactive: [12] 97 % of control | [13] 104 % of control | [14] 106 % of control | [16] 97 % of control | dose: 200.0 mg/kg/injection, schedule: Q01DX009 (ip), vehicle: other 90 % of control
